Three molecules from patent publication US20250034264A1, “REGULATING T CELL IMMUNE RESPONSE THROUGH IGF-I RECEPTOR (IGF-1R)” (The Regents of the University of Michigan, priority 2021, published 2025) can be followed below.

Holding throughout (format): cell-based, human
The subject of one experiment is CD34+ fibrocytes. Description: MHC II, CD80, CD86, PD-L1 expression in cultured fibrocytes (RT-qPCR, flow cytometry). From the text:
Fibrocyte and T cell isolation and cultivation. Peripheral blood mononuclear cells (PBMCs) were obtained from the venous circulation of clinic patients with GD, TAO or from healthy donors after obtaining informed consent. PBMCs were also obtained from Red Cross donor plasmapheresis filters. They were isolated by Ficoll-Histopaque (Sigma-Aldrich, St. Louis, MO) density gradient centrifugation. Fibrocytes were cultivated as described (Bucala, R, et al., (1994) Mol Med 1, 71-81, incorporated herein by reference in its entirety) except that culture substrata remained uncoated with fibronectin, as previously described (Douglas, R. S., et al. (2010) The Journal of clinical endocrinology and metabolism 95, 430-438). Isolated PBMCs (1×10^6-1×107) were inoculated in six-well plates covered with DMEM containing 10% FBS and incubated in 10-14 days. Adherent monolayers (<5% of the starting population) were washed with PBS and detached using accutase (Millipore) treatment, or mechanical scraping following accutase treatment. Culture purity was routinely confirmed by FACS analysis to be >90% fibrocytes by confirming the CD31^−CD45^+CD34^+CXCR4^+Col I^+TSFR^high phenotype.
Invariably, a small population of tightly adherent T cells were found in the fibrocyte cultures, consistent with the previous findings. Culture viability was routinely verified to be >90%. CD4^+ T cells were enriched using the CD4 isolation cocktail (Cat #0.130-096-533, Miltenyi Biotec, San Diego, CA) followed by negative selection using a magnetic column (Cat #0.130-042-401) according to manufacturer's protocol. Fibrocytes and isolated T cells were cultured and remained untreated or were incubated with human IgG isotype control (5 μg/ml) or teprotumumab (50 μg/mL) for 7 to 9 days. Single cell suspensions were stained with anti-human CD4, CD3, CD34, MHC-2, CD80, CD86, and PD-L1 (BD Biosciences) for 30 min, rinsed and fixed with CytoPerm/CytoFix (BD). They were then stained with anti-human INFγ and IL-17A for 20 min, rinsed, and subjected to the flow cytometry analysis. Gated CD34^+CXCR4^+ fibrocytes and CD4^+CD3^+ T cells were analyzed using quadrant settings based on negative isotype staining.
In vitro studies of CD34^+ fibrocytes and T cells PBMC and GD-OF monolayers were treated in vitro with human IgG isotype control (5 μg/ml), teprotumumab (50 μg/mL), H7 (5 μg/mL), linsitinib (1 μM), bTSH (5 mIU/mL), M22 (1 μg/mL), or IGF-1 (10 nM) for the intervals indicted in the figure legends in a 37° C., 5% CO2, humidified incubator until confluent. Brefeldin A (0.66 μl/ml), (Golgi Stop™, BD Biosciences), phorbol 12-myristate 13-acetate (PMA) (50 ng/ml) and ionomycin (1 μg/mL) were added for 5 h. Cells were rinsed with flow cytometry buffer (1×PBS, 0.5% BSA, 0.1% sodium azide) and stained with the relevant monoclonal antibodies.
(§1) Real-time PCR Confluent fibrocyte and GD-OF cultures were incubated with bTSH (5 mIU/mL), teprotumumab (50 μg/mL) or linsitinib (1 μM) for the time intervals indicated, washed with PBS and RNA was extracted with the Aurum Total RNA Mini Kit (cat. #732-6820, Bio-Rad, Hercules, CA). Cellular RNA (2 μg) was reverse transcribed using QuantiTect Reverse Transcription kit (cat. #205314, Qiagen (Germantown, MD) and real-time PCR was performed using an Applied Biosystems instrument with QuantiTect SYBR Green PCR kit (cat. no. 204143; Qiagen, Frederick, MD). Primer sequences were as follows.
For orientation: Real-time PCR tracks product formation cycle by cycle.

In experiment [1] the test system is fibrocytes. Description: IL-23p19 and IL-12p35 mRNA expression, real-time PCR. The conditions noted are these: teprotumumab 50 μg/ml or linsitinib 1 μM, 7-9 d. How it is done: (§2) FIGS. 10A-10F are graphs showing the divergent effect of teprotumumab on bTSH induced IL-23p19 and IL-12p35 expression on fibrocytes and GD-OF. Rinsed fibrocyte and GD-OF monolayers were incubated with or without 50 μg/ml teprotumumab (FIGS. 10A and 10B) or 1 μM linsitinib (FIGS. 10C and 10D) and human Isotype IgG for 7-9 d, and bTSH (5 mIU/mL) was added for 6 h. Harvested RNA was reverse transcribed and isolated cDNA was subjected to quantitative real-time PCR for IL-23p19 and IL-12p35 mRNA levels. Values were normalized to their respective GAPDH levels and are expressed as the mean±SD of three independent determinations. Experiments were repeated three times. FIGS. 10E and 10F are graphs showing the levels of IL-23 protein when rinsed fibrocyte and GD-OF monolayers were incubated with or without 50 μg/ml teprotumumab. **, p<0.01; ***. P<0.001.
as §1

Experiment [2] has as its system GD-OF. The description is as above. To be noted: teprotumumab 50 μg/ml or linsitinib 1 μM, 7-9 d. How it is done: as §2
FIGS. 15A-15C are dose-response curves of teprotumumab effects on IL-6 expression/induction by bTSH (FIG. 15A); HAS2 expression/induction by bTSH (FIG. 15B); IL-12p35 expression/induction by bTSH (FIG. 15C). Following indicated treatments, cellular RNA was harvest from rinsed GD-OF cell layers, reversed transcribed and subjected to real-time PCR. Values were normalized to their respective GAPDH levels.
Graves' disease-orbital fibroblast (GD-OF) preparation and cultivtion GD-OF were isolated from orbital adipose/connective tissues removed during surgical orbital decompression surgery, as described ((Smith, T. J., et al., (2002) The Journal of clinical endocrinology and metabolism 87, 385-392). While the fraction of CD34^+ OF comprising GD-OF strains vary somewhat, the ratios of CD34^+/CD34^− OF are usually 50:50 in the early passages utilized in these studies (passages 2-11). Pure CD34^+ OF and CD34^− OF subsets were generated by staining for 30 m at 4° C. with fluorescein isothiocyanate-conjugated […] CD34 or its isotype control followed by cytometric cell sorting using a FACSAria III (BD Biosciences) instrument. Cells were sorted under sterile conditions into either CD34^+ OF, and CD34 OF subsets which were then re-cultured and treated without or with bTSH (5 mU/mL) or the other test compounds, as indicated, for 6 hrs, as indicated.
as §1

Experiment [3] concerns GD-OF. Description: HAS1 and HAS2 mRNA, real-time PCR. The conditions noted are these: teprotumumab 50 μg/ml or linsitinib 1 μM, 7-9 d. How it is done:
(§3) FIGS. 13A-13B are graphs showing the effect of teprotumumab on bTSH induced hyaluronan (HA) production in GD-OF (FIG. 13A) and fibrocytes (FIG. 13B). GD-OF were treated with or without teprotumumab (50 μg/ml) or human Isotype IgG (5 μg/ml) for 7-9 d and stimulated with bTSH (5 mIU/mL) for graded intervals indicated along the abscissa for 0 to 96h. Media were collected and subjected to HA ELISA. Values were normalized to respective cell layer protein levels and expressed as the mean±SD of three independent determinations. Experiments were repeated three times. FIGS. 13C-13F are graphs showing the divergent pattern of hyaluronan synthase (HAS) isoenzyme induction by bTSH in fibrocytes versus GD-OF and effects of teprotumumab (FIGS. 13C and 13D) and linsitinib (FIGS. 13E and 13F). Confluent monolayers of GD-OF and fibrocytes remained untreated or received teprotumumab (50 μg/ml) or linsitinib (1 μM) and human Isotype IgG for 7-9 d. Some cultures were treated with bTSH (5 mIU/mL) for 6h. Cellular RNA was harvested mRNA was reverse transcribed, and cDNA subjected to quantitative real-time PCR for HAS1 and HAS2. Values were normalized to their respective GAPDH levels and are expressed as the mean±SD of three independent determinations. Experiments were repeated three times. *, P<0.05; **, p<0.01; ***. P<0.001.
as §1

Experiment [4] relates to fibrocytes. Briefly: HAS1 and HAS2 mRNA, real-time PCR. The conditions noted are these: teprotumumab 50 μg/ml or linsitinib 1 μM, 7-9 d. The procedure:
as §3, §1

“rhIGF-1: Recombinant Human IGF-1 (R & D systems)”: the “induction of MHC II, CD80, CD86, PD-L1 surface proteins by the agent itself” value with CD34+ fibrocytes (M22 1 μg/mL (peak at 6 d), IGF-1 10 nM, compared with bTSH) is on record as “considerably less robust”.
In the case of `C[C@]1(O)C[C@@H](c2nc(-c3ccc4ccc(-c5ccccc5)nc4c3)c3c(N)nccn32)C1` [linsitinib], the “induction of MHC II, CD80, CD86, PD-L1 surface proteins” value with CD34+ fibrocytes (bTSH-treated fibrocytes) is recorded as “blocked”. In addition, the “induction of MHC II, CD80, CD86, PD-L1 mRNA by bTSH and M22” value in the experiment on CD34+ fibrocytes (teprotumumab 50 μg/mL, 1H7 5 μg/mL, linsitinib 1 μM) is on record as “blocked”. In addition, in the experiment on fibrocytes [1], the “IL-12p35 expression, basal and induction by bTSH” value is on record as “increasing”; the “IL-23p19 expression, basal and induction by bTSH” value is given as “decreasing”. In the experiment with GD-OF [2], the “IL-12p35 expression, basal and induction by bTSH” value is reported as “increasing”; the “IL-23p19 expression, basal and induction by bTSH” value is listed as “decreasing”. Moreover, in the experiment on GD-OF [3], the “HAS2 expression, single agent or in combination with bTSH” value was “nearly identical”; the “basal and bTSH-provoked expression of HAS1” value was “nearly identical”. In the experiment with fibrocytes [4], the “HAS2 expression, single agent or in combination with bTSH” value is “nearly identical”; the “basal and bTSH-provoked expression of HAS1” value is listed as “nearly identical”.
Turning to `COc1ccc(C2Nc3ccccc3C(=O)N2Cc2ccco2)cc1COc1c(C)cc(NC(C)=O)cc1C` (stereo not drawn) [ML224], in the experiment on CD34+ fibrocytes (9 d, single agents and in combination), the “effect on MHC II, CD80, CD86, PD-L1 expression, teprotumumab compared with TSHR inhibitor ML224” value is “effective”.
